Measurements: the NIST ThermoML archive (doi:10.1016/j.jct.2016.01.001)

Assay: mn = molality of the nth substance listed, in mol/kg
Details: 298.15 K, Ring tensiometer

CC(C)Cc1ccc(C(C)C(=O)[O-])cc1.[Na+] (stereo not drawn) [sodium ibuprofen] + O
Details	surface tension liquid-gas [mN/m]
m1 = 0.0022	62.35
m1 = 0.00438	60.76
m1 = 0.00873	58.91
m1 = 0.0216	54.52
m1 = 0.032	51.62
m1 = 0.0423	48.38
m1 = 0.0524	45.51
m1 = 0.0671	42.39
m1 = 0.0815	40.24
m1 = 0.1	38.27
m1 = 0.118	36.11
m1 = 0.135	34.85
m1 = 0.16	33.01
m1 = 0.183	32.02
m1 = 0.206	31.74
m1 = 0.227	31.72
m1 = 0.247	31.73
m1 = 0.267	31.72
